{"source": "patent US10328063B2", "about": "“Method of wound healing” (CONNEXIOS LIFE SCIENCES PVT. LTD, priority 2015, dated 2019)", "key": {"[1]": {"test_system": "Human Dermal Fibroblast cells (HDF)", "assay": "In vitro scratch assay", "format": "cell-based", "details": "400 nM cortisone with 1 μM test molecule, 24 h", "description": "Human Dermal Fibroblast cells (HDF) cells were seeded in 24 well plates (25000 cells/mL) in 1 mL of growth media (Media-106, Gibco) and allowed to grow for 24 h at 37° C. and 5% CO2. A small linear scratch was created in the confluent monolayer by gently scraping with sterile p200 pipette tips (care was taken during scratching process to ensure universal size and distant was made for all samples). Cells were extensively rinsed with PBS to remove cellular debris before adding the media with different treatment solutions (400 nM cortisone with or without 1 μM of test molecule according to Formula (I)). After 24 h, images of migrated cells were taken using a digital camera connected to inverted microscope to observe the closure of wound area. Scratch assays were performed in quadruplicate."}, "[2]": {"test_system": "excision wound in diet induced obese C57 mice", "assay": "Excision wound model in HFD fed C57 mice (wound contraction, histopathology)", "format": "in vivo", "details": "for Wound contraction profile in C57 mice: HFD, 0.5% cream topical twice a day, Mean ± SEM", "excerpt": "(§1) After an acclimatization period, C57 animals on the HFD were weighed and randomly allocated into different groups such as HFD cream base control and HFD+0.5% CNX-010-640 cream. C57 animals on a lean chow diet (Cream base) were also used as a control. Swiss albino mice on a lean chow diet (excision experiments only) were randomized into cream base control and 0.5% CNX-010-640 cream.\n(§2) Mice were anaesthetized using ketamine and xylazine, hair was trimmed off and a circular excision of 20 mm^2 size was made on the dorsal neck region. CNX-010-640 cream was applied topically, twice a day. The degree of protection for wound remodeling was assessed by measuring wound contraction and period of epithelialisation. Wound contraction was measured on alternate days by tracing the raw wound area on graph paper carried by butter paper. Scar residue and time for completion of epithelialisation was measured. Results are shown in FIGS. 2 and 3, and Tables 1 to 3. On the termination day animals were euthanized and tissue samples containing wound was collected to study histopathological changes (as shown in FIGS. 6 to 11) and gene expression profiles were determined (FIGS. 12 to 17).\n[7] All the values are expressed as Mean±SEM, one way analysis of variance was performed followed by Dunnets' test for establishing the significance value of the treatment groups when compared with the HFD control."}, "[3]": {"test_system": "excision wound in Swiss albino mice", "assay": "Excision wound model in Swiss albino mice (wound contraction)", "format": "in vivo", "details": "for Wound contraction profile in SAM: 0.5% cream topical twice a day, Mean ± SEM", "excerpt": "as §1, §2"}, "[4]": {"test_system": "excision wound in db/db mice", "assay": "Excision wound model in db/db mice (wound contraction)", "format": "in vivo", "details": "for Wound contraction profile in db/db mice: 0.5% cream topical twice a day, Mean ± SEM", "description": "(§3) db/db Mice (from JAX lab) on chow diet were weighed and randomly allocated into different groups such as db/db cream base control and db/db+0.5% CNX-010-640 cream.\nas §2"}, "[5]": {"test_system": "incision wound in diet induced obese C57 mice", "assay": "Incision wound model in HFD fed C57 mice (tensile strength, collagen content)", "format": "in vivo", "details": "diabetic C57 mice", "excerpt": "as §1\n(§4) [6] Mice were anaesthetized using ketamine and xylazine, hair was trimmed off and a longitudinal incision of 4 to 5 cm length was made on the back and stitched with thread. CNX-010-640 cream was applied topically, twice a day. The degree of protection for wound remodeling was assessed by measuring tensile strength and collagen content of skin at the healed wound site. Wound tensile strength was measured after 14 days of treatment."}, "[6]": {"test_system": "incision wound in db/db mice", "assay": "Incision wound model in db/db mice (tensile strength)", "format": "in vivo", "details": "diabetic db/db mice", "description": "as §3, §4"}, "[7]": {"test_system": "markers of inflammation at the wound area", "assay": "Ex vivo gene expression profile from excision wound model", "format": "in vivo", "details": "HFD C57BL/6 mice, after one week of compound treatment, skin near wound", "excerpt": "[13] […] The db/db control group wounds were not healed within this time. Furthermore, the size of wound of these control groups at the end of the experiment period (day 12) was achieved by the CNX-010-640 treated mice after only 8 days of treatment. […] [16] […] [17] Additionally, the degree of polymorphonuclear cell infiltration (indicative of inflammatory phase) was greater in the G2 group compared to the G3 group (compare FIGS. 6 and 7). From these microscopic observations it can be concluded that the treatment with 0.5% CNX-010-640 hastened the healing process, as it facilitated an early advancement into the proliferative phase in animals treated with CNX-010-640 (G3 group) of this study. Thus CNX-010-640 cream, when applied topically b.i.d, in excision and incision wound healing model on HFD background animals and normal SAM mice, enhanced the healing process in comparison with normal healing and VersaPro control. […] Gene expression was measured using SYBR Green PCR Master Mix (Eurogenetic, Belgium) and relative levels of expression were quantified (see FIGS. 12 to 17). From this, it is apparent that compound treatment has reduced the markers of inflammation at the wound area, as measured by gene expression. […]"}, "[8]": {"details": "HFD C57 mice, 0.5% cream, excision wound"}, "[9]": {"details": "diabetes-induced C57 mice, excision"}}}
{"smiles": "CC(CC(=O)N1C2CC3CC1CC(O)(C3)C2)c1c[nH]c2ccc(Cl)c(Cl)c12", "note": "(stereo not drawn) [CNX-010-640, 3-(4,5-Dichloro-1H-indol-3-yl)-1-(5-hydroxy-2-azatricyclo[3.3.1.1^3,7]dec-2-yl)butan-1-one]", "values": [{"measurement": "closure of wound area (wound healing properties, image analysis)", "setting": "[1]", "result": "good wound healing properties"}, {"measurement": "Wound contraction profile in C57 mice", "setting": "[2]; Day 0", "result": "25.10 ± 1.40", "unit": "mm^2"}, {"measurement": "Wound contraction profile in C57 mice", "setting": "[2]; Day 2", "result": "15.80 ± 1.77", "unit": "mm^2"}, {"measurement": "Wound contraction profile in C57 mice", "setting": "[2]; Day 4", "result": "17.90 ± 1.92", "unit": "mm^2"}, {"measurement": "Wound contraction profile in C57 mice", "setting": "[2]; Day 6", "result": "9.40 ± 1.42", "unit": "mm^2"}, {"measurement": "Wound contraction profile in C57 mice", "setting": "[2]; Day 8", "result": "5.60 ± 1.47", "unit": "mm^2"}, {"measurement": "Wound contraction profile in C57 mice", "setting": "[2]; Day 10", "result": "4.00 ± 1.41", "unit": "mm^2"}, {"measurement": "Wound contraction profile in C57 mice", "setting": "[2]; Day 12", "result": "0.25 ± 0.25", "unit": "mm^2"}, {"measurement": "degree of collagen deposition (histopathology) in comparison with HFD+VersaPro control", "setting": "[2]; [8]", "result": "higher degree"}, {"measurement": "degree of fibroblast proliferation (histopathology) in comparison with HFD+VersaPro control", "setting": "[2]; [8]", "result": "higher degree"}, {"measurement": "days of treatment to reach the wound size of the control group at day 12", "setting": "[2]; [9]", "result": 6, "unit": "days"}, {"measurement": "time to complete healing of the wound", "setting": "[2]; [9]", "result": 12, "unit": "days"}, {"measurement": "degree of polymorphonuclear cell infiltration (histopathology)", "setting": "[2]; diabetes-induced mouse, VersaPro cream with 0.5% compound, excision wound", "result": "mild"}, {"measurement": "Wound contraction profile in SAM", "setting": "[3]; Day 0", "result": "22.77 ± 1.38", "unit": "mm^2"}, {"measurement": "Wound contraction profile in SAM", "setting": "[3]; Day 2", "result": "15.00 ± 2.18", "unit": "mm^2"}, {"measurement": "Wound contraction profile in SAM", "setting": "[3]; Day 4", "result": "14.33 ± 2.62", "unit": "mm^2"}, {"measurement": "Wound contraction profile in SAM", "setting": "[3]; Day 6", "result": "10.44 ± 2.80", "unit": "mm^2"}, {"measurement": "Wound contraction profile in SAM", "setting": "[3]; Day 8", "result": "3.20 ± 1.46", "unit": "mm^2"}, {"measurement": "Wound contraction profile in SAM", "setting": "[3]; Day 10", "result": "1.00 ± 0.54", "unit": "mm^2"}, {"measurement": "Wound contraction profile in SAM", "setting": "[3]; Day 12", "result": "0.600 ± 0.600", "unit": "mm^2"}, {"measurement": "days of treatment to reach the wound size of the control group at day 12", "setting": "[3]; Swiss albino mice, excision", "result": 6, "unit": "days"}, {"measurement": "time to complete healing of the wound", "setting": "[3]; non-diabetic Swiss albino mice, excision", "result": 12, "unit": "days"}, {"measurement": "Wound contraction profile in db/db mice", "setting": "[4]; Day 0", "result": "17.10 ± 0.69", "unit": "mm^2"}, {"measurement": "Wound contraction profile in db/db mice", "setting": "[4]; Day 2", "result": "23.80 ± 0.87", "unit": "mm^2"}, {"measurement": "Wound contraction profile in db/db mice", "setting": "[4]; Day 4", "result": "14.40 ± 0.91", "unit": "mm^2"}, {"measurement": "Wound contraction profile in db/db mice", "setting": "[4]; Day 6", "result": "11.40 ± 0.48", "unit": "mm^2"}, {"measurement": "Wound contraction profile in db/db mice", "setting": "[4]; Day 8", "result": "8.20 ± 0.42", "unit": "mm^2"}, {"measurement": "Wound contraction profile in db/db mice", "setting": "[4]; Day 10", "result": "5.00 ± 0.47", "unit": "mm^2"}, {"measurement": "Wound contraction profile in db/db mice", "setting": "[4]; Day 12", "result": "2.20 ± 0.42", "unit": "mm^2"}, {"measurement": "Wound contraction profile in db/db mice", "setting": "[4]; Day 16", "result": "0.30 ± 0.21", "unit": "mm^2"}, {"measurement": "days of treatment to reach the wound size of the control group at day 12", "setting": "[4]; db/db mice, excision", "result": 8, "unit": "days"}, {"measurement": "time to complete healing of the wound", "setting": "[4]; diabetic db/db mice, excision", "result": 16, "unit": "days"}, {"measurement": "improvement of tensile strength of skin at the incision site compared with control formulation", "setting": "[5]; after 14 days of treatment", "result": "up to 38%"}, {"measurement": "collagen content, as estimated by measurement of hydroxyproline, compared with controls", "setting": "[5]; incision", "result": "greater"}, {"measurement": "improvement of tensile strength of skin at the incision site compared with control formulation", "setting": "[6]", "result": "up to 18%"}, {"measurement": "markers of inflammation at the wound area, as measured by gene expression", "setting": "[7]", "result": "reduced"}]}
